Read-outs that look alike come from different tables or passages of the source.
How the values were obtained:
Chymotrypsin = target: T1, Chymotrypsin (Bos taurus, UniProt P00766); assay: Chymotrypsin inhibition (Ac-AAPPhN hydrolysis, 410 mμ); format: biochemical, bovine
T1 construct: purchased Worthington
Procedure: a-Chymotrypsin (Worthington, 3X crystallized, lyophilized) at 100 μg/ml in 0.001 M HCl (1 mg/ml by wt. diluted 1:10)
0.2 mM N-Acetyl-Alanyl-Alanyl-Prolyl-Phenylalanyl-p-nitroanilide=Ac-AAPPhN.To prepare substrate, the solid (M.W. 566) was first dissolved in 10.0 ml DMSO. Buffer at pH 7.5 was then added to a final volume of 100 ml.
(§1) Inhibitors to be tested dissolved in DMSO just before use.
To 1.0 ml of 0.2 mM Ac-AAPPhN in a cuvette, 0.01-0.05 ml of DMSO with or without inhibitor was added. After mixing, a measurement was taken at 410 mμ to detect any spontaneous hydrolysis due to the presence of test compound. 0.01 ml of α-chymotrypsin solution was then added and the ΔOD/min at […] was measured and recordeed. A Gilford 240 240 spectrophotometer was used.
Results were obtained as % inhibition produced by test compound as represented by the % decrease in ΔOD/min of a control. The ID50 was then derived from the % inhibition curve.

Human PMN Elastase = target: T2, Human PMN Elastase (Homo sapiens, UniProt P08246); assay: Human PMN elastase inhibition (Boc-AAPAN hydrolysis, 410 mμ); format: biochemical; details: 0.2 mM Boc-AAPAN, pH 7.5, crude human PMN extract; read-out: ID50 Human PMN Elastase (converted)
T2 construct: Crude extract of human polymorphonuclear leukocytes (PMN) containing elastase activity; from tissue; host or cells: human polymorphonuclear leukocytes (crude extract)
T2 sequence (P08246 30-267): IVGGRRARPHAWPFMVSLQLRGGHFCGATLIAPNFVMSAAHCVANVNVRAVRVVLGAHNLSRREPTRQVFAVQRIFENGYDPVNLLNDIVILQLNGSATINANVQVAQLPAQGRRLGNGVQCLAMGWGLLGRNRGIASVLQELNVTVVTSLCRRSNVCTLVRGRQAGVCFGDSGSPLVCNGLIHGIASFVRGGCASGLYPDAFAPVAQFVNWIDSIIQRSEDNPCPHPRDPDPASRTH
Procedure: N-tris (hydroxymethyl) methyl-2-aminoethane sulfonic acid
0.2 mM N-t-Box-Alanyl-Alanyl-Prolyl-Alanine-p-nitroanilide=Boc-AAPAN
To prepare substrate, the solid (m.w. 550) was first dissolved in 10.0 ml. DMSO. Buffer at pH 7.5 was then added to a final volume of 100 ml.
Crude extract of human polymorphonuclear leukocytes (PMN) containing elastase activity.
as §1
To 1.0 ml. of 0.2 mM Box-AAPAN in a cuvette, 0.01-0.1 ml. of DMSO with or without inhibitor was added. After mixing, a measurement was taken at 410 mμ to detect any spontaneous hydrolysis due to presence of test compound. 0.05 ml. of PMN extract was then added and the ΔOD/min at 410 mμ was measured and recorded. A Gilford 240 or Beckman DB-G spectrophotomer was used.
Results were obtained as % inhibition produced by test compound as represented by the % decrease in ΔOD/min. of a control. The ID50 was then derived from the % inhibition curve.
The elastase activity in the crude PMN extract may vary from one preparation to another. A control of each new batch is run and the volume added in the assay procedure is adjusted according to activity.

Trypsin = target: T3, Trypsin (Bos taurus, UniProt P00760); assay: Trypsin inhibition (BAPA hydrolysis, 410 mμ); format: biochemical, bovine
T3 construct: purchased Worthington TRL
T3 sequence (P00760 24-246): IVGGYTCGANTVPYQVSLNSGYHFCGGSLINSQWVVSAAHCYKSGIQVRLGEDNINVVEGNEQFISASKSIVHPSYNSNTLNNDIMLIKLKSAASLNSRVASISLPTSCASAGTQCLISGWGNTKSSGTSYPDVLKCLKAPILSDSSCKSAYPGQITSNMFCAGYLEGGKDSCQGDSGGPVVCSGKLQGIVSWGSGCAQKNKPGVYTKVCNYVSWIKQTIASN

[1] = target: T4, Porcine Pancreatic Elastase (Sus scrofa, UniProt P00772); assay: Porcine pancreatic elastase inhibition (Boc-AAPAN hydrolysis, 410 mμ); format: biochemical; details: 0.2 mM Boc-AAPAN, pH 7.5, purified PPE; read-out: ID50 Porcine Pancreatic Elastase (converted)
T4 construct: purchased Worthington

Human PMN Cathepsin G = target: T5, Human PMN Cathepsin G (Homo sapiens, UniProt P08311); assay: Human PMN cathepsin G inhibition (BTNP hydrolysis, 347.5 mμ); format: biochemical; details: 0.2 mM BTNP, pH 6.5, purified human PMN extract; read-out: ID50 Human PMN Cathepsin G (converted)
T5 construct: Purified extract of human polymorphonuclear leukocytes (PMN) containing chymotrypsin-like activity; from tissue; host or cells: human polymorphonuclear leukocytes (purified extract)
T5 sequence (P08311 21-255): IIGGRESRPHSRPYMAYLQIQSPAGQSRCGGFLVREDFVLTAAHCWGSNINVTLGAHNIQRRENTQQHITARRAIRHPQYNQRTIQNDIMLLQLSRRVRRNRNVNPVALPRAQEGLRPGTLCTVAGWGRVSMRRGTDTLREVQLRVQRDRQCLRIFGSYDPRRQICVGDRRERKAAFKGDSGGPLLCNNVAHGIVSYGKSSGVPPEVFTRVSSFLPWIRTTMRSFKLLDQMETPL

Papain induced emphysema = details: hamster; cited from earlier work
[2] = test system: trypsin, chymotrypsin, plasmin, kallikrein, elastase, and thrombin; details: glycoprotein in human serum; cited from earlier work
papain = details: cited from earlier work
[3] = 0.2 mM Ac-AAPPhN, pH 7.5, α-chymotrypsin, read-out: ID50 Chymotrypsin (converted)
[4] = 1.0 mM BAPA, pH 7.5, read-out: ID50 Trypsin (converted)

T4 sequence (P00772 27-266): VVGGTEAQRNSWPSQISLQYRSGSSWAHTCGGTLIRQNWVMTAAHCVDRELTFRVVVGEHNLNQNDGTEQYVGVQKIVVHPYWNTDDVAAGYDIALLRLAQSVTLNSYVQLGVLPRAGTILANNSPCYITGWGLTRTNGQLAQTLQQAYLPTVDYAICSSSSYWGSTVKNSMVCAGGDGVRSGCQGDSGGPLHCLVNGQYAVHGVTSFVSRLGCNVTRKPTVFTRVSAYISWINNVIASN

| Molecule | IC50 (Human PMN Elastase) | IC50 (Chymotrypsin; [3]) | IC50 (Human PMN Cathepsin G) | IC50 (Trypsin; [4]) | IC50 (Chymotrypsin) | IC50 (Trypsin) | IC50 [1] | inhibition of papain induced emphysema (Papain induced emphysema) | inhibitory spectrum [2] | inhibition of papain (papain) |
| --- | --- | --- | --- | --- | --- | --- | --- | --- | --- | --- |
| O=C1c2ccccc2S(=O)(=O)N1c1ccc([N+](=O)[O-])cc1[N+](=O)[O-] | 2.86 µM | – | – | – | 1.43 µM | 143 µM | 143 µM | – | – | – |
| O=C1c2ccccc2S(=O)(=O)N1c1c(F)c(F)c(F)c(F)c1F | 2.86 µM | – | – | – | 143 µM | 143 µM | 143 µM | – | – | – |
| N#Cc1cc([N+](=O)[O-])ccc1N1C(=O)c2ccccc2S1(=O)=O | 3.04 µM | 0.607 µM | 45.6 µM | – | – | 60.7 µM | 60.7 µM | – | – | – |
| O=C(c1ccco1)N1C(=O)c2ccccc2S1(=O)=O [reference compound] | 0.361 µM | 0.0721 µM | – | 1.8 µM | – | – | 0.721 µM | – | – | – |
| O=C(c1cccs1)N1C(=O)c2ccccc2S1(=O)=O [reference compound] | 0.341 µM | – | – | 0.0682 µM | 0.682 µM | – | 0.682 µM | – | – | – |
| C=CC(=O)N1C(=O)c2ccccc2S1(=O)=O [reference compound] | 0.422 µM | 0.295 µM | 4.22 µM | 1.69 µM | – | – | 0.843 µM | – | – | – |
| O=C1c2ccccc2S(=O)(=O)N1c1ccc([N+](=O)[O-])cc1 [reference compound] | 164 µM | – | – | – | 329 µM | 329 µM | 329 µM | – | – | – |
| α1 -Antitrypsin: a glycoprotein in human serum | – | – | – | – | – | – | – | inhibited | wide inhibitory spectrum | not inhibited |

Further lines, with some results ahead:

| IC50 (Human PMN Elastase) | IC50 (Chymotrypsin; [3]) | IC50 (Human PMN Cathepsin G) | IC50 (Trypsin; [4]) | Molecule | IC50 (Chymotrypsin) | IC50 (Trypsin) | IC50 [1] | inhibition of papain induced emphysema (Papain induced emphysema) | inhibitory spectrum [2] | inhibition of papain (papain) |
| --- | --- | --- | --- | --- | --- | --- | --- | --- | --- | --- |
| 1.64 µM | 0.655 µM | – | 65.5 µM | O=C1c2ccccc2S(=O)(=O)N1c1ncccc1[N+](=O)[O-] | – | – | 65.5 µM | – | – | – |
| 10.5 µM | 59.6 µM | – | – | N#Cc1ccc(N2C(=O)c3ccccc3S2(=O)=O)nc1 | – | – | – | – | – | – |
| 4.85 µM | 3.23 µM | 162 µM | 162 µM | N#Cc1ccc(N2C(=O)c3ccccc3S2(=O)=O)c(C#N)c1 | – | – | 162 µM | – | – | – |
| 0.355 µM | 0.142 µM | – | 3.55 µM | CCC(CC)C(=O)N1C(=O)c2ccccc2S1(=O)=O [reference compound] | – | – | 1.07 µM | – | – | – |

Source: patent US4276298A, “2-Aryl-1,2-benzisothiazolinone-1,1-dioxides and their use as selective protease inhibitors” (Merck & Co., Inc., priority 1979, dated 1981)
